Test results as given in publication PMC12735945, “Synthetic Linear Lipopeptides and Lipopeptoids Induce Apoptosis and Oxidative Stress: In Vitro Cytotoxicity and SAR Evaluation Against Cancer Cell Lines” (Pharmaceuticals, 2025).
Like-named read-outs stand apart in the source and are kept apart here. Starred links: 1 amine or outer side, 2 acyl side, 3 side chain; linkers in the order of their positions; H or OH if unused. Positions of bridges follow the written chain, without caps; N, C: chain ends. Non-standard residues stand in square brackets, D forms with d. Residues, ends and D or L forms follow the SMILES beside them. *: point of attachment. X1 = CC(C)CCCCCCCCC[C@H](CC(=O)[*:1])O[*:2]; Heptadecanoyl = CCCCCCCCCCCCCCCCC(=O)*; Stearoyl = CCCCCCCCCCCCCCCCCC(=O)*; Myristoyl = CCCCCCCCCCCCCC(=O)*; Boc = CC(C)(C)OC(=O)*; Nlys = NCCCCNCC(=O)O

Columns and labels:
[1] = test system: HeLa (human cervical adenocarcinoma) cells; assay type: cell-based; conditions: 72 h
Protocol: (§1) The MTT and CV assays were employed for initial cytotoxicity screening and determination of half-maximal inhibitory concentrations (IC50), as described previously. Cells were seeded in 96-well plates and incubated for 24 h prior to treatment. B16F10, HT-29, HeLa, and NIH3T3 cells were seeded at a density of 2000 cells per well, while PC3 cells were seeded at 6000 cells per well due to their slower proliferation rate. For fast screening, cancer cells were treated with two concentrations of each LLP (0.1 µM and 10 µM) for 72 h in triplicate, with four replicates in each experiment. […] Digitonin was used as a positive control in all assays. Following treatment, absorbance was measured using a microplate reader (SpectraMax, Molecular Devices, San Jose, CA, USA) at 540 nm, with a reference wavelength of 670 nm. Cell viability was calculated as a percentage of untreated control wells.

[2] = test system: HeLa (human cervical adenocarcinoma) cells; assay type: cell-based; conditions: 72 h; remark: listed apart in the source
Protocol: as §1

[3] = test system: B16F10 (mouse skin melanoma) cells; assay type: cell-based; conditions: 72 h
Protocol: as §1

[4] = test system: PC3 (human prostate cancer) cells; assay type: cell-based; conditions: 72 h
Protocol: as §1

[5] = test system: HT-29 (human colon adenocarcinoma) cells; assay type: cell-based; conditions: 72 h
Protocol: as §1

[6] = test system: HT-29 (human colon adenocarcinoma) cells; assay type: cell-based; conditions: 72 h; remark: listed apart in the source
Protocol: as §1

[7] = test system: PC3 (human prostate cancer) cells; assay type: cell-based; conditions: 72 h; remark: listed apart in the source
Protocol: as §1

[8] = test system: B16F10 cells; assay: Apoptosis by Annexin V-FITC/PI staining; assay type: cell-based, mouse; conditions: B16F10, IC50 concentration, 72 h
Protocol: B16F10 melanoma cells were seeded in 6-well plates at a density of 1 × 10^5 cells/well and incubated overnight to allow for cell adherence. […] Following treatment, both floating and adherent cells were harvested and washed with PBS. The cells were then resuspended in 100 μL of Annexin V binding buffer containing 5 μL of Annexin V-FITC and 2 μL of PI per sample. Staining was performed for 15 min at 37 °C in the dark. After staining, cells were washed with PBS and analyzed using a BD FACSAria III flow cytometer (BD Biosciences) to quantify the percentages of apoptotic cells.

[9] = test system: caspases in B16F10 cells; assay: ApoStat caspase detection assay; assay type: cell-based, mouse; conditions: B16F10, IC50 concentration, 72 h
Protocol: B16F10 cells were seeded in 6-well plates at a density of 1 × 10^5 cells per well and treated for 72 h with IC50 concentrations of selected active LLPs. Post-treatment, cells were harvested and washed with PBS. Cells were then stained with 100 μL of working ApoStat solution, prepared by diluting ApoStat reagent (FITC-VAD-FMK) in PBS containing 5% FCS (99 μL of PBS 5% FCS + 1 μL ApoStat per sample). The staining was performed for 30 min at 37 °C in the dark. Following incubation, cells were washed to remove unbound reagents and analyzed by flow cytometry using a FACSAria III system (BD Biosciences). The fluorescence intensity of FITC was measured to assess caspase production, with increased fluorescence indicating elevated caspase activity.

[10] = test system: B16F10 cells; assay: Cell cycle analysis (DAPI staining, flow cytometry); assay type: cell-based, mouse; conditions: 72 h
Protocol: B16F10 cells were seeded overnight in 6-well plates at a density of 1 × 10^5 cells per well and treated for 72 h with selected active LLPs either at the IC50 or 2 × IC50 concentration. Following treatment, both floating and adherent cells were collected, washed with PBS, and fixed in 70% ethanol at 4 °C overnight. Fixed cells were stained with DAPI staining solution (1 µg/mL) for 30 min at 37 °C in the dark, followed by PBS washing to remove excess dye. Flow cytometric analysis was performed using a FACSAria III instrument (BD Biosciences, Eysins, Switzerland). Histograms of cell counts versus fluorescence intensity were generated and cell cycle distribution was determined based on mean fluorescence intensity values.

[11] = test system: B16F10 cells; assay: ROS/RNS production (DHR staining, flow cytometry); assay type: cell-based, mouse; conditions: B16F10, IC50 concentration, 72 h, versus untreated control
Protocol: (§2) To assess intracellular ROS/RNS levels, B16F10 cells were first stained with 1 µM DHR for 10 min at 37 °C. Following staining, cells were treated with LLPs 17, 53 or 58 at their IC50 concentrations for 72 h. After treatment, cells were trypsinized, washed with PBS, and analyzed by flow cytometry to quantify DHR fluorescence, indicative of ROS/RNS production. For NO detection, B16F10 cells were treated under identical conditions using the same LLP concentrations. After 72 h, cells were incubated with 5 µM DAF-FM diacetate in RPMI 1640 supplemented with 10% FCS for 1 h at 37 °C. The stain was then deactivated by incubation for 15 min with a serum-free medium. Finally, cells were detached, washed with PBS, and subjected to flow cytometric analysis to assess intracellular NO levels.

[12] = test system: B16F10 (mouse skin melanoma) cells; assay type: cell-based; conditions: 72 h; remark: listed apart in the source
Protocol: as §1

[13] = test system: B16F10 cells; assay: NO production (DAF-FM staining, flow cytometry); assay type: cell-based, mouse; conditions: B16F10, IC50 concentration, 72 h
Protocol: as §2

[14] = test system: B16F10 cells; assay: CFSE-based cell proliferation assay; design: species or system mouse; conditions: B16F10, IC50 concentration, 72 h
Protocol: B16F10 cells were stained with 1 µM carboxyfluorescein succinimidyl ester (CFSE) for 10 min at 37 °C, followed by treatment with compounds 17, 53, or 57 at IC50 concentrations for 72 h. After incubation, cells were washed, trypsinized, and analyzed by flow cytometry to assess cell division based on CFSE fluorescence intensity.

[15] = test system: NIH3T3 mouse embryonic fibroblasts; assay type: cell-based; conditions: 72 h
Protocol: as §1

[16] = test system: HeLa (human cervical adenocarcinoma) cells; conditions: CV assay, 72 h; mean ± SD; cited from earlier work
Protocol: Table 1 IC50 value (µM) for cytotoxic LLPs (72 h, CV assay). Data represent mean ± SD from three independent biological experiments, each performed with eight technical replicates per concentration. | column: HeLa

[17] = test system: B16F10 (mouse skin melanoma) cells; conditions: CV assay, 72 h; mean ± SD; cited from earlier work
Protocol: Table 1 IC50 value (µM) for cytotoxic LLPs (72 h, CV assay). Data represent mean ± SD from three independent biological experiments, each performed with eight technical replicates per concentration. | column: B16F10

[18] = MTT assay, mean ± SD of three independent biological experiments, read-out: IC50 B16F10
[19] = B16F10, double IC50 concentration
[20] = MTT assay, mean ± SD of three independent biological experiments, read-out: IC50 HeLa

| Structure (SMILES) | IC50 [1] | IC50 [2] | IC50 [5] | IC50 [6] | proportion of apoptotic cells [8] | caspase activation (ApoStat fluorescence) [9] | cells in the sub-G1 phase ([10]; B16F10, IC50 concentration) | cells in the sub-G1 phase [10, 19] | IC50 [2, 20] | IC50 [3] | ROS/RNS production [11] | IC50 [12] | NO production [13] | cell division profile (CFSE) [14] | other results |
| --- | --- | --- | --- | --- | --- | --- | --- | --- | --- | --- | --- | --- | --- | --- | --- |
| CCCCCCCCCCCCCCCC(=O)N(CCCCCCNC(=O)OC(C)(C)C)CC(=O)NCC(=O)N(CCCCCCNC(=O)OC(C)(C)C)CC(=O)NCC(=O)OC [Compound 3] | 6.6 ± 0.3 µM | 6.4 ± 0.9 µM | 6.5 ± 0.6 µM | 6.2 ± 0.2 µM | – | – | – | – | – | – | – | – | – | – | IC50 [3, 18]: 6.1 ± 0.1 µM; IC50 [4]: 5.9 ± 0.1 µM; IC50 [7]: 6.1 ± 0.2 µM |
| CCCCCCCCCCCCCC(=O)N(CCNC(=O)OC(C)(C)C)CC(=O)NCC(=O)N(CCNC(=O)OC(C)(C)C)CC(=O)NCC(=O)OC [Compound 17] | – | – | 4 ± 0.6 µM | 4.1 ± 0.8 µM | approximately 15% | gradual enhancement in the fluorescence signal | approximately 20% | 50–60% | 5.6 ± 0.3 µM | 5.7 ± 0.3 µM | moderate ROS/RNS generation | 5.6 ± 0.4 µM | increased NO production | notably reduced the proportion of cells undergoing successive divisions | IC50 [4]: 4 ± 0.3 µM; IC50 [7]: 4.1 ± 0.6 µM |
| CCCCCCCCCCCCCCCCC(=O)N(CCCCNC(=O)OC(C)(C)C)CC(=O)NCC(=O)N(CCCCNC(=O)OC(C)(C)C)CC(=O)NCC(=O)OC [Compound 45] (Heptadecanoyl-[Nlys](Boc)G[Nlys](Boc)G-OMe) | 7.9 ± 0.6 µM | 8 ± 0.5 µM | 7.5 ± 0.1 µM | 7.8 ± 0.9 µM | – | – | – | – | – | – | – | – | – | – | IC50 [3, 18]: 8 ± 0.2 µM |
| CCCCCCCCCCCCCCCCCC(=O)N(CCCCNC(=O)OC(C)(C)C)CC(=O)NCC(=O)N(CCCCNC(=O)OC(C)(C)C)CC(=O)NCC(=O)OC [Compound 46] (Stearoyl-[Nlys](Boc)G[Nlys](Boc)G-OMe) | 8 ± 0.4 µM | 8.2 ± 0.3 µM | – | – | – | – | – | – | – | 8.1 ± 0.1 µM | – | 8 ± 0.9 µM | – | – | – |
| CCCCCCCCCCCCCC(=O)N(CCCCNC(=O)OC(C)(C)C)CC(=O)NCC(=O)N(CCCCNC(=O)OC(C)(C)C)CC(=O)NCC(=O)OC [Compound 47] (Myristoyl-[Nlys](Boc)G[Nlys](Boc)G-OMe) | – | – | – | – | – | – | – | – | 12.3 ± 0.8 µM | – | – | – | – | – | – |
| CCCCCCCCCCCCCCCC(=O)N(CCc1ccc(O)cc1)CC(=O)NCC(=O)OC [Compound 53] | – | – | – | – | approximately 15% | gradual enhancement in the fluorescence signal | approximately 20% | 50–60% | – | 8 ± 0.2 µM | only slightly enhanced | 7.7 ± 0.3 µM | only a slight increase | notably reduced the proportion of cells undergoing successive divisions | – |
| CCCCCCCCCCCCCCCC(=O)N(CCCCN=[N+]=[N-])CC(=O)NCC(=O)N(CCCCN=[N+]=[N-])CC(=O)NCC(=O)OC [Compound 55] | – | – | – | – | – | – | – | – | 15.4 ± 0.4 µM | – | – | – | – | – | – |
| CCCCCCCCCCCCCCCCCCC(=O)N(CCCCN=[N+]=[N-])CC(=O)NCC(=O)N(CCCCN=[N+]=[N-])CC(=O)NCC(=O)OC [Compound 58] | 7.7 ± 0.2 µM | 7.8 ± 0.3 µM | 8.7 ± 0.3 µM | 9.1 ± 0.2 µM | approximately 15% | clearer caspase activation was detected | approximately 20% | 50–60% | – | 7.5 ± 0.2 µM | marked increase | 7.4 ± 0.1 µM | increased NO production | notably reduced the proportion of cells undergoing successive divisions | – |
| CCCCCCCCCCCCCCCCCCCC(=O)N(CCCCN=[N+]=[N-])CC(=O)NCC(=O)N(CCCCN=[N+]=[N-])CC(=O)NCC(=O)OC [Compound 59] | – | – | – | – | – | – | – | – | – | 11.5 ± 1.3 µM | – | 11.1 ± 1.2 µM | – | – | – |
| CC(C)CCCCCCCCC[C@@H]1CC(=O)N[C@@H](CCC(=O)O)C(=O)N[C@@H](CC(C)C)C(=O)N[C@H](CC(C)C)C(=O)N[C@@H](C(C)C)C(=O)N[C@@H](CC(=O)O)C(=O)N[C@H](CC(C)C)C(=O)N[C@@H](CC(C)C)C(=O)O1 [Surfactin, surfactin, reference compound] (EL[dL]VD[dL]L; linker N-C via X1 (inferred)) | – | 64.9 ± 0.8 µM | – | – | – | – | – | – | – | 50.3 ± 0.6 µM | – | – | – | – | NIH3T3 cell viability [15]: approximately 25%; IC50 [16]: 76.2 ± 1.6 µM; IC50 [17]: 40.4 ± 0.3 µM |
